The subject of data set [1] is Human Rotavirus strain Wa. In words: Virus Inhibition Assay: MTT viability of MA-104 cells infected with Rotavirus in the presence of test compound. The note with it: for Fate of MA-104 cells treated with virus and compound (MTT metabolism assay): in the presence of virus, Table 2; for MA-104 Cell Viability After Exposure to Test Compound with Rotavirus, (+) Virus: percent of control without virus or compound added, MTT after three days, five wells, compound concentration not given; for MA-104 Infection with Lactulose (Mean OD): MTT absorbance 570 nm, 3 days, mean ± sd, triplicate. In kind it is cell-based. The procedure:
(§1) MA-104 cells of epithelial morphology were obtained from American Type Culture Collection and were originally derived from Rhesus monkey embryonic kidney. The cells were cultured at 37° C. in a humidified incubator and in an atmosphere of 5% CO2, in Minimal Essential Medium with Earle's balanced salt solution (2 mM glutamine, 1 mM sodium pyruvate, 0.1 mM non-essential amino acids and 1.5 g/L sodium bicarbonate) supplemented with 10% fetal bovine serum from Hyclone, Logan, Utah. The cells were passaged twice a week at a split ratio of 1:4.
Human Rotavirus strain Wa was obtained from the American Type Culture Collection. A virus stock was diluted 1:5 in media, aliquoted to 0.2 mL per vial and stored at approximately −80° C. The human Rotavirus strain, Wa (TC adapted) (Catalog No. VR-2018), originally isolated from a diarrheic stool from a human patient (Wyatt et al., Science 207: 189-191, 1980; U.S. Pat. No. 4,341,870), is Serotype 1 (G1) for VP7.
(§2) MTT Viability Assays were conducted in a Promega CellTiter 96® Non-Radioactive Cell Kit (Cat # G400) obtained from Promega, Madison, Wis. and used according to manufacturer's instructions.
(§3) Test compounds were prepared by dissolving each compound at 20-μg/mL final concentration in incomplete MA-104 media (Minimal Essential Medium with Earle's balanced salt solution). The compounds were sterilized by filtration through a 0.45-micron filter. The filter-sterilized stock was stored frozen at less than −20° C.
(§4) Virus Inhibition Assay: Virus strain Wa (1:2 dilution from stock) was activated in the presence of 5 μg/mL trypsin and incubated with 1, 10 or 100 μg/mL test compound in serum-free medium at 37° C. for 30 minutes. The activated virus was then diluted 1:5 in serum-free medium containing test compound at the same concentration (to bring the trypsin concentration to 1 μg/mL), added to MA-104 cells, and serially diluted on microtiter plates (5-fold series). The diluent contained 1 μg/mL trypsin and the indicated amount of test compound. After the virus was adsorbed at 37° C. for 1 hour, the virus innoculum was removed, and the media was replaced with serum-free medium containing 1 μg/mL trypsin and the indicated amount of test compound. Cultures were incubated at 37° C. for 3 days, and then cell viability was assessed with the Promega MTT assay following manufacturer's instructions. Each plate contained a dilution series of virus not treated with test compound and each plate contained cells exposed to test compound without virus. All samples were tested in triplicate. Absorbance at 570 nm was determined on a SpectraMax microplate reader (Molecular Devices) equipped with SoftMax Pro (v 3.1.2) data analysis software. The mean absorbance of triplicate determinations, the standard deviation, and the % CV (standard deviation/mean* 100) were calculated. The Q test was used to remove outliers (Anderson, Robert L. 1987 in Practical Statistics for Analytical Chemists, page 31-33, Table 7, Appendix D). Data were fit to a 4-parameter curve using SoftMax Pro software. The curve equation is y=((A−D)/(1+(x/C)^B))[…] which defines a sigmoid shaped curve; A is the lower asymptote as X approaches zero; D is the upper plateau as X approaches infinity; B is the slope in the linear portion of the curve; and C is the ED50.
(§5) Test compound and activated Rotavirus were diluted in serum free medium and added to five wells of MA-104 cells. Another 5 wells on the same microtiter plate were exposed to test compound in serum free medium containing trypsin. After three days incubation, cell viability was assessed with the MTT metabolism assay. Data are expressed as percent of control without virus or compound added.
A general note: Tetrazolium assays rely on reduction of a dye to a coloured formazan, in cell work by metabolically active cells.

A further data set relates to MA-104 cells. In kind it is cell-based, Rhesus monkey. The procedure: as §1, §2, §3, §4, §5
In data set [2] the test system is Human Rotavirus strain Wa. The note with it: previous results referred to in the text; cited from earlier work.

Where two headings read alike, the source gives them in different places.

With arabinogalactan, in data set [1], the “Fate of MA-104 cells treated with virus and compound (MTT metabolism assay)” value (“Fate of MA-104 cells treated” for short) is “significant cell kill due to virus infection”; the “MA-104 Cell Viability After Exposure to Test Compound with Rotavirus, (+) Virus” value (shortened to “MA-104 Cell Viability After Exposure … (+) Virus”) was 19%. Moreover, the “MA-104 Cell Viability After Exposure to Test Compound without Rotavirus, (−) Virus” value in the data set on MA-104 cells is recorded as 102%.

For the molecule kappa-carageenen [Kappa Carageenen], in data set [1], the “Fate of MA-104 cells treated” value was “remained viable”; the “MA-104 Cell Viability After Exposure … (+) Virus” value is recorded as 119%. In the data set with MA-104 cells, the “MA-104 Cell Viability After Exposure to Test Compound without Rotavirus, (−) Virus” value is reported as 112%. Moreover, in data set [2], the “Inhibition of Rotavirus according to previous results / previous data” value was “inhibits Rotavirus infection”.

Turning to `OC[C@H]1O[C@@H](O[C@@H]2[C@@H](CO)O[C@](O)(CO)[C@H]2O)[C@H](O)[C@@H](O)[C@H]1O` [Lactulose, 4-O-β-D-galactopyranosil-D-fructofuranose], the “MA-104 Infection with Lactulose (Mean OD)” value (“MA-104 Infection” below) in data set [1] (Lactulose 1 μg/mL, virus (diln)-1 10) worked out at 0.072 ± 0.007; in data set [1] (Lactulose 1 μg/mL, virus (diln)-1 50), 0.132 ± 0.010; in data set [1] (Lactulose 1 μg/mL, virus (diln)-1 250), 0.428 ± 0.092; in data set [1] (Lactulose 1 μg/mL, virus (diln)-1 1250), 0.756 ± 0.036; in data set [1] (Lactulose 1 μg/mL, virus (diln)-1 6250) it was 0.743 ± 0.064; in data set [1] (Lactulose 1 μg/mL, virus (diln)-1 31250) it was 0.782 ± 0.049. Besides, the “MA-104 Infection” value in data set [1] (Lactulose 1 μg/mL, virus (diln)-1 156250) is given as 0.804 ± 0.031; in data set [1] (Lactulose 10 μg/mL, virus (diln)-1 10) it was 0.087 ± 0.002; in data set [1] (Lactulose 10 μg/mL, virus (diln)-1 50), 0.315 ± 0.168; in data set [1] (Lactulose 10 μg/mL, virus (diln)-1 250) it was 0.541 ± 0.330; in data set [1] (Lactulose 10 μg/mL, virus (diln)-1 1250), 0.869 ± 0.088; in data set [1] (Lactulose 10 μg/mL, virus (diln)-1 6250) it was 0.808 ± 0.085. Moreover, the “MA-104 Infection” value is recorded as 0.820 ± 0.082 in data set [1] (Lactulose 10 μg/mL, virus (diln)-1 31250); 0.844 ± 0.030 in data set [1] (Lactulose 10 μg/mL, virus (diln)-1 156250); 0.133 ± 0.045 in data set [1] (Lactulose 100 μg/mL, virus (diln)-1 10); 0.849 ± 0.061 in data set [1] (Lactulose 100 μg/mL, virus (diln)-1 50); 0.906 ± 0.081 in data set [1] (Lactulose 100 μg/mL, virus (diln)-1 250); 0.971 ± 0.060 in data set [1] (Lactulose 100 μg/mL, virus (diln)-1 1250). Moreover, the “MA-104 Infection” value in data set [1] (Lactulose 100 μg/mL, virus (diln)-1 6250) came out at 1.012 ± 0.153; in data set [1] (Lactulose 100 μg/mL, virus (diln)-1 31250), 0.951 ± 0.038; in data set [1] (Lactulose 100 μg/mL, virus (diln)-1 156250) it was 0.942 ± 0.040. Moreover, in data set [1] (MA-104 cells infected with Rotavirus, lactulose 1, 10, 100 μg/mL), the “Protection of MA-104 cells from virus killing” value is “protected MA-104 cells from virus killing in a dose dependent manner”. Moreover, the “Fate of MA-104 cells treated” value in data set [1] is listed as “remained viable”. Moreover, the “MA-104 Cell Viability After Exposure … (+) Virus” value in data set [1] amounted to 119%. Moreover, the “MA-104 Cell Viability After Exposure to Test Compound without Rotavirus, (−) Virus” value in the data set with MA-104 cells (Rhesus monkey, 3 days) was 134%. The “MA-104 cells, no virus (Mean OD)” value amounted to 0.372 ± 0.093 with MA-104 cells (Rhesus monkey, 3 days, 1 μg/mL); 0.419 ± 0.070 in the data set on MA-104 cells (Rhesus monkey, 3 days, 10 μg/mL); 0.612 ± 0.192 with MA-104 cells (Rhesus monkey, 3 days, 100 μg/mL).

Take Sialyllactose: in data set [1], the “Fate of MA-104 cells treated” value is given as “significant cell kill due to virus infection”; the “MA-104 Cell Viability After Exposure … (+) Virus” value is 17%. The “MA-104 Cell Viability After Exposure to Test Compound without Rotavirus, (−) Virus” value in the data set with MA-104 cells is recorded as 100%.

As to galactooligosaccharide, the “MA-104 Cell Viability After Exposure to Test Compound without Rotavirus, (−) Virus” value in the data set on MA-104 cells is 116%.

The values are drawn from patent US20050276838A1, “Composition and method for viral inhibition” (priority 2003, published 2005).
